Results reported in ChEMBL document CHEMBL5365534, “Discovery of a Novel Ketohexokinase Inhibitor with Improved Drug Distribution in Target Tissue for the Treatment of Fructose Metabolic Disease” (J Med Chem, 2023).
Values after ≈ are worked out from the molar mass of the structure shown.

Experiments:
physchem [1] = conditions: buffer, pH 7.4
in vitro [2] = conditions: human, Caco-2
Ketohexokinase = target: T1, Ketohexokinase (Homo sapiens, UniProt P50053)
T1 sequence (P50053 whole entry): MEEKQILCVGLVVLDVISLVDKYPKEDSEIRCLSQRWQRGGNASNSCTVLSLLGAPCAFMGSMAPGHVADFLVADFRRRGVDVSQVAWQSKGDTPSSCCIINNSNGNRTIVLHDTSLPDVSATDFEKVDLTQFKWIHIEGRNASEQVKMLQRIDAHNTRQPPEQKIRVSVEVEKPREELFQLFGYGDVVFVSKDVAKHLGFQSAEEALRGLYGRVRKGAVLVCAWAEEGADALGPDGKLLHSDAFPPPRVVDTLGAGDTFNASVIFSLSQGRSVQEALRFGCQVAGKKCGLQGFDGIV

physchem [3] = test: physchem
in vitro [4] = conditions: human, Caco-2; remark: listed apart in the source
in vitro [5] = conditions: human, liver microsomes
in vitro [6] = conditions: dog, liver microsomes
in vitro [7] = conditions: rat, liver microsomes

Row | logD (physchem [1]) | Papp A→B at 2 h, 10 µM (in vitro [2]) [×10⁻⁶ cm/s] | IC50 (Ketohexokinase) [nM] | solubility kinetic (physchem [3]) [µM] | efflux ratio (in vitro [4]) | Kinetic_solubility | microsomal CLint at 2 h, 1 µM (in vitro [5]) [µL/min/mg] | microsomal CLint at 2 h, 1 µM (in vitro [6]) [µL/min/mg] | microsomal CLint at 2 h, 1 µM (in vitro [7]) [µL/min/mg] | SMILES
1 |  |  | > 1000 |  |  | Not Determined(Insoluble) |  |  |  | C[C@H]1CCN1c1nc(N2CCC3(CC3C(=O)O)C2)cc(C(F)(F)F)n1 (some centres not stated)
2 |  |  | 849 |  |  | Not Determined(Insoluble) |  |  |  | C[C@H]1CCN1c1nc(N2CC[C@H](CCC(=O)O)C2)cc(C(F)(F)F)n1
3 | 0.01 | 1.47 | 49 | 999 (≈ 352 µg/mL) | 11.2 |  |  |  |  | C[C@H]1CCN1c1nc(N2CC[C@H](CC(=O)O)C2)c2c(n1)C(F)(F)CC2
4 |  |  | 89.5 |  |  | Not Determined(Insoluble) |  |  |  | C[C@H]1CCN1c1nc(N2CC[C@H](CCC(=O)O)C2)c2c(n1)C(F)(F)CCC2
5 | 0.86 | 5.14 | 25.9 | > 1000 | 7.81 |  |  |  | 64.6 | O=C(O)CC[C@H]1CCN(c2nc(N3CC[C@@H]3C(F)(F)F)nc3c2CCC3(F)F)C1

Second part, the molecule before the results:

Row | SMILES | logD (physchem [1]) | Papp A→B at 2 h, 10 µM (in vitro [2]) [×10⁻⁶ cm/s] | IC50 (Ketohexokinase) [nM] | solubility kinetic (physchem [3]) [µM] | efflux ratio (in vitro [4]) | Kinetic_solubility | microsomal CLint at 2 h, 1 µM (in vitro [5]) [µL/min/mg] | microsomal CLint at 2 h, 1 µM (in vitro [6]) [µL/min/mg] | microsomal CLint at 2 h, 1 µM (in vitro [7]) [µL/min/mg]
6 | C[C@H]1CCN1c1nc(N2C[C@@H](CC(=O)O)[C@H](O)C2)cc(C(F)(F)F)c1C#N (racemic) | 0.93 | 0.09 | 138 | 889 (≈ 342 µg/mL) | 218 |  |  |  | 
7 | O=C(O)CC[C@H]1CCN(c2nc(N3CC4CCCC43)nc3c2CCC3(F)F)C1 (some centres not stated) |  |  | > 1000 |  |  | Not Determined(Insoluble) |  |  | 
8 | C[C@H]1CCN1c1nc(N2CCC3(CC(C(=O)O)C3)C2)cc(C(F)(F)F)c1C#N (some centres not stated) |  |  |  |  |  |  | 6.2 | 5.5 | 4.5
9 | C[C@H]1CCN1c1nc(N2C[C@H]3CC[C@H](C(=O)O)[C@H]3C2)cc(C(F)(F)F)c1C#N (racemic) | 2.31 | 18.3 | 21.9 | 230 (≈ 90.5 µg/mL) | 1.13 |  | 10.4 |  | 
10 | C[C@H]1CCN1c1nc(N2CCC3(CC3C(=O)O)C2)cc(C(F)(F)F)c1C#N (some centres not stated) | 1.73 | 16.2 | 108 | > 1000 | 1.78 |  | 4.6 |  | 5.6
11 | C[C@H]1CCN1c1nc(N2C[C@H]3CC[C@H](C(=O)O)[C@H]3C2)c2c(n1)C(F)(F)CC2 (racemic) | 0.58 | 6.13 | 34.7 | > 1000 | 4.54 |  |  |  | 
12 | C[C@H]1CCN1c1nc(N2CCC(C)(CC(=O)O)C2)cc(C(F)(F)F)c1C#N (some centres not stated) |  |  | > 1000 |  |  | Not Determined(Insoluble) |  |  | 
13 | C[C@H]1CCN1c1nc(N2CC[C@H](OCC(=O)O)C2)c2c(n1)C(F)(F)CC2 | -1.1 | 0.23 | 53.9 | > 1000 | 19.9 |  |  |  | 
14 | C[C@H]1CCN1c1nc(N2CC(CC(=O)O)C(F)(F)C2)cc(C(F)(F)F)c1C#N (some centres not stated) | 1.48 | 10.9 | 108 | > 1000 | 2.48 |  |  |  | 
